Source: US20100249234A1, “METHODS OF REDUCING VIRULENCE IN BACTERIA” (UWM RESEARCH FOUNDATION, INC., priority 2007, published 2010)

Legend:
Assay type in all cases: cell-based, Dickeya dadantii 3937 (Ech3937)
[1] = test system: hrpA promoter; test: hrpA promoter activity, GFP reporter plasmid phrpA, flow cytometry (FACS); details: for expression of hrpA, GFP intensity (Mean Fluorescence Intensity), Ech3937 carrying phrpA: MM + 0.1 mM compound
Protocol: FACS analysis of promoter activity of dspE, hrpA, hrpL, hrpN, and hrpS was carried out as described (Peng et al., 2006). Briefly, the wild-type Ech3937 and the mutant strains carrying the promoter reporter plasmid were grown on LB broth at 28° C. overnight and transferred to appropriate media. For FACS analysis, samples were collected by centrifugation, washed with 1× phosphate buffer saline (PBS) at 13,000 rpm for 1 min, and re-suspended in 1×PBS to ca 10^6 CFU/ml prior to being run in a FACS Calibur flow cytometer (BD Biosciences, CA). Three replicates were performed for each treatment.
To identify potential compounds that repress activation of T3SS, analogs and isomers of TCA and intermediates of salicylic acid and phenypropanoid biosynthesis pathways in plants were further screened for their effect on Ech3937 hrpA expression by flow cytometry (Table 9). A green fluorescent protein (GFP) reporter plasmid phrpA (pProbe-AT derivative with PCR fragment containing hrpA promoter region) was constructed, resulting in a transcriptional fusion of hrpA promoter with GFP gene. Bacterial cells containing phrpA plasmid were grown in MM supplemented with 0.1 mM of each compound. GFP intensity, which is a measurement of hrpA promoter activity, was measured by flow cytometry.

[2] = test system: hrpN promoter; test: hrpN promoter activity, GFP reporter plasmid phrpN, flow cytometry (FACS)
[3] = test system: Ech3937; test: Growth of Ech3937 in MM supplemented with compound; details: 0.05, 0.1 and 0.2 mM in MM (FIGS. 2A, 2B)
Source text: Phenolic compounds constitute an important class of organic substances produced by plants. The phenolic compound SA is a signaling molecule that plays a role in host defenses. OCA and TCA are the biosynthetic precursors of SA and are also reported to induce the expression of defense-related genes in plants. OCA, TCA, and SA were examined to elucidate their effects on the expression of T3SS genes. The expression of the T3SS gene hrpN was examined in MM and MM supplemented with OCA, TCA, and SA, at concentrations of 0.05, 0.1, and 0.2 mM, respectively. FIGS. 2A and 2B show the promoter activities of hrpN in Dickeya dadantii 3937 (Ech3937) grown in MM and MM supplemented with 0.05, 0.1, and 0.2 mM OCA, TCA, and SA at 12 h (FIG. 2A) and 24 h (FIG. 2B) post-inoculation. GFP intensity was determined on gated populations of bacterial cells by flow cytometry and analyzed with the Cell Quest software (BD Biosciences, San Jose, Calif.). The growth of Ech3937 in MM supplemented with different concentrations of OCA, TCA and SA was recorded. Compared with MM alone, the average GFP fluorescence intensity of bacterial cells of Ech3937 (phrpN) was increased approximately 4-fold when 0.05 mM of OCA and TCA were added to the medium (FIGS. 2A, 2B).
The expression of the T3SS gene hrpA was further examined in MM and MM supplemented with PCA at concentrations of 0.001, 0.005, 0.01, 0.05 and 0.1 mM respectively. FIGS. 16A and 16B show the promoter activities of hrpA in Dickeya dadantii 3937 (Ech3937) grown in minimum medium (MM) and MM supplemented with different amount of p-coumaric acid (PCA) at 12 h (FIG. 16A) and 24 h (FIG. 16B) post-inoculation. GFP intensity was determined on gated populations of bacterial cells by flow cytometry and analyzed with the Cell Quest software (BD Biosciences, San Jose, Calif.). The growth of Ech3937 in MM supplemented with different concentrations of PCA was recorded. Compared with MM alone, the average GFP fluorescence intensity of bacterial cells of Ech3937 (phrpA) was reduced more than 4-fold when 0.05 and 0.1 mM of PCA were added to the medium (FIGS. 16A, 16B).

| Structure (SMILES) | expression of hrpA, GFP intensity (Mean Fluorescence Intensity), Ech3937 carrying phrpA ([1]; 6 h (Table 9)) | expression of hrpA, GFP intensity (Mean Fluorescence Intensity), Ech3937 carrying phrpA ([1]; 12 h (Table 9)) | expression of hrpA, GFP intensity (Mean Fluorescence Intensity), Ech3937 carrying phrpA ([1]; 24 h (Table 9)) | further results |
| --- | --- | --- | --- | --- |
| O=C(O)[C@@H]1C[C@H]1c1ccccc1 (relative stereo) [trans-2-Phenylcyclopropane-1-carboxylic acid] | 7.2 ± 0.1 | 67.0 ± 18.4 | 84.0 ± 14.3 |  |
| O=C(O)C=Cc1ccccc1Cl [2-Chlorocinnamic acid] | 25.7 ± 0.2 | 166.2 ± 17.8 | 319.8 ± 48.3 |  |
| Cc1ccccc1C=CC(=O)O [2-Methylcinnamic acid] | 22.8 ± 0.6 | 157.2 ± 11.7 | 342.5 ± 16.6 |  |
| OCC=Cc1ccccc1 [Cinnamyl alcohol] | 6.3 ± 0.1 | 27.8 ± 5.0 | 53.8 ± 2.9 | effect on expression of hrpA (screen result) ([1]; MM + 0.1 mM compound (Table 9)): inhibitors of the expression of hrpA |
| O=C(O)CCc1ccccc1 [Hydrocinnamic acid] | 13.7 ± 1.0 | 200.3 ± 35.8 | 213.5 ± 18.9 |  |
| COC(=O)/C=C/c1ccccc1 [Methyl trans-cinnamate] | 9.7 ± 0.1 | 135.8 ± 8.1 | 219.2 ± 14.5 |  |
| O=C(O)COc1ccccc1 [Phenoxyacetic acid] | 18.0 ± 3.1 | 222.7 ± 64.3 | 205.7 ± 11.8 |  |
| O=C(O)c1ccccc1O [SA, salicylic acid, reference compound] |  |  |  | effect on GFP fluorescence intensity of Ech3937 (phrpN) compared with MM alone ([2]; 0.05, 0.1 and 0.2 mM in MM, 12 h and 24 h (FIGS. 2A, 2B)): did not result in increased GFP fluorescence intensity; GFP Intensity of Ech3937 (phrpN) ([2]; MM + 0.2 μM compound, 12 h): 53.7 ± 4.0; GFP Intensity of Ech3937 (phrpN) ([2]; MM + 0.2 μM compound, 24 h): 105 ± 28; GFP Intensity of Ech3937 (phrpN) ([2]; MM + 0.5 μM compound, 12 h): 49.5 ± 5.9; GFP Intensity of Ech3937 (phrpN) ([2]; MM + 0.5 μM compound, 24 h): 99.5 ± 18; GFP Intensity of Ech3937 (phrpN) ([2]; MM + 5 μM compound, 12 h): 49.9 ± 2.9; GFP Intensity of Ech3937 (phrpN) ([2]; MM + 5 μM compound, 24 h): 97.7 ± 9.0; GFP Intensity of Ech3937 (phrpN) ([2]; MM + 10 μM compound, 12 h): 52.0 ± 2.3; GFP Intensity of Ech3937 (phrpN) ([2]; MM + 10 μM compound, 24 h): 104 ± 3.1; bacterial growth of Ech3937 in supplemented MM [3]: No reduction of bacterial growth |
| O=C(O)/C=C/c1cccc(O)c1 [m-Coumaric acid] | 12.1 ± 0.0 | 133.0 ± 38.2 | 203.3 ± 9.6 |  |
| O=C(O)/C=C/c1cccnc1 [trans-3-(3-Pyridyl)acrylic acid] | 13.1 ± 0.4 | 184.9 ± 35.6 | 204.0 ± 16.8 |  |
| O=C(O)/C=C/c1c[nH]c2ccccc12 [trans-3-indoleacrylic acid] | 7.9 ± 0.2 | 23.9 ± 1.3 | 121.0 ± 6.2 |  |
